Assay: xn = mol fraction of the nth substance listed

C1CCOCC1 + CCCCO
viscosity [mPa·s], 101.3 kPa
Details	x1 = 0.0478	x1 = 0.0969	x1 = 0.1984	x1 = 0.288	x1 = 0.3973	x1 = 0.5005	x1 = 0.6788	x1 = 0.7023	x1 = 0.8041	x1 = 0.9024
298.15 K	2.294	2.056	1.662	1.426	1.222	1.087	0.931	0.9162	0.8645	0.8316
313.15 K	1.633	1.483	1.255	1.086	0.9459	0.8494	0.7345	0.7252	0.6832	0.6584

CC(C)C1CCCCC1 + CCCCO
viscosity [mPa·s], 100 kPa
Details	x1 = 0.0995	x1 = 0.1998	x1 = 0.2959	x1 = 0.4009	x1 = 0.4944	x1 = 0.5738	x1 = 0.6818	x1 = 0.7966	x1 = 0.8935
293.15 K	2.489	2.126	1.858	1.614	1.45	1.325	1.214	1.139	1.105
298.15 K	2.189	1.884	1.654	1.449	1.31	1.207	1.114	1.051	1.022
303.15 K	1.94	1.678	1.481	1.308	1.189	1.104	1.024	0.974	0.95
308.15 K	1.726	1.501	1.332	1.185	1.085	1.014	0.947	0.905	0.885
313.15 K	1.539	1.348	1.203	1.078	0.994	0.935	0.879	0.844	0.827
318.15 K	1.379	1.216	1.092	0.985	0.915	0.866	0.818	0.789	0.774
323.15 K	1.241	1.1	0.995	0.906	0.845	0.804	0.764	0.738	0.727

CC(Cl)(Cl)Cl + CCCCO
298.15 K, 101 kPa
Details	viscosity [mPa·s]
x1 = 0.1022	2.187
x1 = 0.2068	1.872
x1 = 0.3061	1.611
x1 = 0.4067	1.372
x1 = 0.5174	1.164
x1 = 0.605	1.042
x1 = 0.6995	0.936
x1 = 0.7924	0.855
x1 = 0.9022	0.811

O=CC(Br)(Br)Br + CCCCO
viscosity [mPa·s], 101.33 kPa
Details	x1 = 0.1	x1 = 0.2	x1 = 0.3	x1 = 0.4	x1 = 0.5	x1 = 0.6	x1 = 0.7	x1 = 0.797	x1 = 0.899
293.15 K	4.71	6.92	10.15	15.97	22.38	21.27	15.08	11.21	9.11
313.15 K	2.56	3.84	4.96	7.06	8.81	8.39	6.2	4.97	4.21

CC(Cl)(Cl)Cl + CCCO
298.15 K, 101 kPa
Details	viscosity [mPa·s]
x1 = 0.0572	1.789
x1 = 0.1154	1.667
x1 = 0.193	1.506
x1 = 0.3007	1.318
x1 = 0.3956	1.165
x1 = 0.49	1.045
x1 = 0.6367	0.909
x1 = 0.7983	0.824
x1 = 0.8861	0.799

CC(Cl)(Cl)Cl + CCCOCCC
298.15 K, 101.33 kPa
Details	viscosity [mPa·s]
x1 = 0.101	0.4245
x1 = 0.198	0.4478
x1 = 0.299	0.4745
x1 = 0.398	0.5036
x1 = 0.5	0.5365
x1 = 0.601	0.5733
x1 = 0.7	0.6147
x1 = 0.8	0.6632
x1 = 0.85	0.6907

CC(Cl)(Cl)Cl + CCO
viscosity [mPa·s], 101.32 kPa
Details	x2 = 0.1602	x2 = 0.3002	x2 = 0.4237	x2 = 0.5336	x2 = 0.6318	x2 = 0.7202	x2 = 0.8001	x2 = 0.8728	x2 = 0.9392
303.15 K	0.705	0.745	0.778	0.839	0.87	0.902	0.924	0.942	0.984
313.15 K	0.614	0.669	0.683	0.71	0.745	0.761	0.784	0.807	0.819
323.15 K	0.56	0.597	0.604	0.614	0.639	0.655	0.664	0.684	0.692
